Laboratory results reported in the NIST ThermoML archive (doi:10.1021/acs.jced.8b00236).

Experiment: mn = molality of the nth substance listed, in mol/kg
Conditions: 75 kPa, Liquid; for viscosity: Capillary tube (Ostwald / Ubbelohde) method; for speed of sound: Frequency=3 MHz, Single path-length method; for mass density: Vibrating tube method

NCCCCCC(=O)O [6-aminohexanoic acid] + O
Conditions | mass density [kg/m3] | speed of sound [m/s] | viscosity [mPa·s]
288.15 K, m1 = 0.1386 | 1002.94 | 1484.1 | 1.237
288.15 K, m1 = 0.2786 | 1006.69 | 1501.7 | 1.324
288.15 K, m1 = 0.4193 | 1010.34 | 1518.8 | 1.43
288.15 K, m1 = 0.5602 | 1013.86 | 1535.5 | 1.543
288.15 K, m1 = 0.7027 | 1017.3 | 1551.7 | 1.676
288.15 K, m1 = 0.8448 | 1020.62 | 1566.7 | 1.804
288.15 K, m1 = 0.9881 | 1023.86 | 1581.4 | 1.945
288.15 K, m1 = 1.132 | 1026.99 | 1595.3 | 2.103
293.15 K, m1 = 0.1386 | 1001.94 | 1499.7 | 1.088
293.15 K, m1 = 0.2786 | 1005.61 | 1516.3 | 1.158
293.15 K, m1 = 0.4193 | 1009.17 | 1532.6 | 1.25
293.15 K, m1 = 0.5602 | 1012.62 | 1548.3 | 1.344
293.15 K, m1 = 0.7027 | 1016.01 | 1563.8 | 1.459
293.15 K, m1 = 0.8448 | 1019.28 | 1578.3 | 1.566
293.15 K, m1 = 0.9881 | 1022.48 | 1592.5 | 1.689
293.15 K, m1 = 1.132 | 1025.6 | 1606 | 1.825
298.15 K, m1 = 0.1386 | 1000.74 | 1513 | 0.962
298.15 K, m1 = 0.2786 | 1004.36 | 1529 | 1.025
298.15 K, m1 = 0.4193 | 1007.89 | 1544.6 | 1.103
298.15 K, m1 = 0.5602 | 1011.3 | 1559.8 | 1.183
298.15 K, m1 = 0.7027 | 1014.65 | 1574.6 | 1.277
298.15 K, m1 = 0.8448 | 1017.88 | 1588.6 | 1.377
298.15 K, m1 = 0.9881 | 1021.04 | 1602.2 | 1.481
298.15 K, m1 = 1.132 | 1024.11 | 1615.3 | 1.59
303.15 K, m1 = 0.1386 | 999.323 | 1524.5 | 0.865
303.15 K, m1 = 0.2786 | 1002.91 | 1539.8 | 0.916
303.15 K, m1 = 0.4193 | 1006.4 | 1554.7 | 0.984
303.15 K, m1 = 0.5602 | 1009.78 | 1569.1 | 1.062
303.15 K, m1 = 0.7027 | 1013.08 | 1583.2 | 1.137
303.15 K, m1 = 0.8448 | 1016.26 | 1596.8 | 1.222
303.15 K, m1 = 0.9881 | 1019.37 | 1610 | 1.314
303.15 K, m1 = 1.132 | 1022.39 | 1622.5 | 1.423
308.15 K, m1 = 0.1386 | 997.675 | 1534.6 | 0.781
308.15 K, m1 = 0.2786 | 1001.24 | 1549.2 | 0.821
308.15 K, m1 = 0.4193 | 1004.7 | 1563.5 | 0.881
308.15 K, m1 = 0.5602 | 1008.06 | 1577.4 | 0.949
308.15 K, m1 = 0.7027 | 1011.35 | 1591 | 1.02
308.15 K, m1 = 0.8448 | 1014.52 | 1603.9 | 1.096
308.15 K, m1 = 0.9881 | 1017.62 | 1616.4 | 1.177
308.15 K, m1 = 1.132 | 1020.64 | 1628.4 | 1.267
